# Data as given in US20240148821A1, “PHARMACEUTICAL USE OF CYCLIC PEPTIDE COMPOUND” (CHUGAI SEIYAKU KABUSHIKI KAISHA, priority 2021, published 2024).
# Numbered stars: 1 amine (or outer) side, 2 acyl side, 3 side chain; on linkers, the order of the positions; unused ones are H or OH. Bridge positions count the residues as written; N and C are the ends. Square brackets hold non-standard residues; d marks the D form. Peptide text beside a SMILES is read from it. * marks the point of attachment. hPhe(3-Cl-4-CF3) = N[C@@H](CCc1ccc(C(F)(F)F)c(Cl)c1)C(=O)O; NEtPhe(4-CF3) = CCN[C@@H](Cc1ccc(C(F)(F)F)cc1)C(=O)O; hPhe(4-CF3) = N[C@@H](CCc1ccc(C(F)(F)F)cc1)C(=O)O; Pro(cis-4-Ph) = O=C(O)[C@@H]1C[C@H](c2ccccc2)CN1; NMePhe(4-Cl) = CN[C@@H](Cc1ccc(Cl)cc1)C(=O)O; X41 = CN([C@@H](CC=C1CCOCC1)C(=O)[*:2])[*:1]; NMedβ3hAla = C[C@H](CC(=O)[*:2])N(C)[*:1]; NMeAla(cPent) = CN[C@@H](CC1CCCC1)C(=O)O; NMeGly(cPent) = CN[C@H](C(=O)O)C1CCCC1; Phe(3-I) = N[C@@H](Cc1cccc(I)c1)C(=O)O; Pro(4,4-F2) = O=C(O)[C@@H]1CC(F)(F)CN1; Ala(cPent) = N[C@@H](CC1CCCC1)C(=O)O; NMeCha = CN[C@@H](CC1CCCCC1)C(=O)O; NMeGly(cPr) = CN[C@H](C(=O)O)C1CC1; hhPhe = N[C@@H](CCCc1ccccc1)C(=O)O; Hyp = O=C(O)[C@@H]1C[C@@H](O)CN1; NEtLeu = CCN[C@@H](CC(C)C)C(=O)O; NMeChg = CN[C@H](C(=O)O)C1CCCCC1; NMeF = CN[C@@H](Cc1ccccc1)C(=O)O; dNMeF = CN[C@H](Cc1ccccc1)C(=O)O; NMeD = CN[C@@H](CC(=O)O)C(=O)O; NMeL = CN[C@@H](CC(C)C)C(=O)O; Chg = N[C@H](C(=O)O)C1CCCCC1; NMeV = CN[C@H](C(=O)O)C(C)C; d(β3hA) = C[C@@H](N)CC(=O)O; Morpholide = C1CN(*)CCO1; NMeA = CN[C@@H](C)C(=O)O; NMeAib = CNC(C)(C)C(=O)O; Piperidide = C1CCN(*)CC1; Pyrrolidide = C1CCN(*)C1; dNMeA = CN[C@H](C)C(=O)O; Ac5c = NC1(C(=O)O)CCCC1; Aze = O=C(O)[C@@H]1CCN1; Ac4c = NC1(C(=O)O)CCC1; Aib = CC(C)(N)C(=O)O; Sar = CNCC(=O)O
# Target: protein-protein interaction between Kras and SOS1 (biotin-tagged human Kras loaded with GDP, His-tagged human SOS1) (Homo sapiens (Human), UniProt P01116, G12D)
# Test: Protein-protein interaction inhibition between Kras and SOS1 (KrasG12D-SOS PPI) using AlphaScreen;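 further: kras produced in E. coli, Ni-coupled donor beads and streptavidin acceptor beads, excitation 680 nm with emission detected at 520–620 nm via singlet oxygen transfer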
# Format: biochemical
# Conditions: AlphaScreen; biotin-tagged human Kras loaded with GDP, His-tagged human SOS1; read-out: KRAS G12D-SOS PPI IC50
row,Compound,IC50
1,CC(C)C[C@H]1C(=O)N[C@@H](C2CCCCC2)C(=O)N(C)[C@@H](C)C(=O)N2CC[C@H]2C(=O)N(C)[C@@H](CC2CCCCC2)C(=O)N(C)CC(=O)N[C@@H](CCc2ccc(C(F)(F)F)c(Cl)c2)C(=O)N2CCC[C@H]2C(=O)NC2(CCCC2)C(=O)N(C)[C@@H](C(C)C)C(=O)N(C)[C@H](C(=O)N2CCCCC2)CC(=O)N1C [Compound 642] ([NMeL][Chg][NMeA][Aze][NMeCha][Sar][hPhe(3-Cl-4-CF3)]P[Ac5c][NMeV][NMeD]-Piperidide; lactam N-11),54 nM
2,CCO[C@@H]1C[C@H]2C(=O)N(C)[C@@H](Cc3ccccc3)C(=O)N(C)[C@@H](CC(C)C)C(=O)N[C@H](C(=O)N3CCCC3)CC(=O)N(C)[C@@H](C)C(=O)N[C@@H]([C@@H](C)CC)C(=O)N(C)CC(=O)N(C)CC(=O)N(C)[C@@H](Cc3ccc(Cl)cc3)C(=O)N(C)CC(=O)N[C@@H](Cc3cccc(I)c3)C(=O)N2C1 [Compound 634] ([NMeA]I[Sar][Sar][NMePhe(4-Cl)][Sar][Phe(3-I)][Hyp](Et)[NMeF][NMeL]D-Pyrrolidide; lactam N-11),260 nM
3,CC[C@H](C)[C@@H]1NC(=O)[C@H](CC(C)C)N(C)C(=O)C[C@@H](C)NC(=O)[C@H](CC(C)C)N(C)C(=O)C(C)(C)NC(=O)[C@H](CC(C)C)N(C)C(=O)[C@H](CCc2ccc(C(F)(F)F)cc2)NC(=O)CN(C)C(=O)[C@H](CC2CCCCC2)N(C)C(=O)CN(C)C(=O)CN(C)C1=O [Compound 839] (cyclo([Aib][NMeL][d(β3hA)][NMeL]I[Sar][Sar][NMeCha][Sar][hPhe(4-CF3)][NMeL])),220 nM
4,CC[C@H](C)[C@@H]1NC(=O)[C@H](C)N(C)C(=O)C[C@@H](C)NC(=O)[C@H](C2CCCCC2)N(C)C(=O)C(C)(C)N(C)C(=O)[C@@H]2CCCN2C(=O)[C@H](CCc2ccc(C(F)(F)F)c(Cl)c2)NC(=O)CN(C)C(=O)[C@H](CC2CCCCC2)N(C)C(=O)[C@@H]2CCN2C(=O)[C@H](C)N(C)C1=O [Compound 291] (cyclo([Aze][NMeCha][Sar][hPhe(3-Cl-4-CF3)]P[NMeAib][NMeChg][d(β3hA)][NMeA]I[NMeA])),55 nM
5,CC(C)C[C@H]1C(=O)N[C@@H](CC2CCCC2)C(=O)N(C)[C@@H](C)C(=O)N2CC[C@H]2C(=O)N(C)[C@@H](CC2CCCCC2)C(=O)N(C)CC(=O)N[C@@H](CCc2ccc(C(F)(F)F)c(Cl)c2)C(=O)N2CCC[C@H]2C(=O)NC2(CCCC2)C(=O)N(C)[C@@H](C(C)C)C(=O)N(C)[C@H](C(=O)N2CCCCC2)CC(=O)N1C [Compound 84] ([NMeL][Ala(cPent)][NMeA][Aze][NMeCha][Sar][hPhe(3-Cl-4-CF3)]P[Ac5c][NMeV][NMeD]-Piperidide; lactam N-11),73 nM
6,CC[C@H](C)[C@@H]1NC(=O)[C@H](CC(C)C)N(C)C(=O)C[C@@H](C(=O)N2CCCC2)N(C)C(=O)[C@H](C2CCCC2)N(C)C(=O)C2(CCCC2)NC(=O)[C@@H]2CCCN2C(=O)[C@H](CCc2ccc(C(F)(F)F)c(Cl)c2)NC(=O)CN(C)C(=O)[C@H](CC2CCCCC2)N(C)C(=O)[C@@H]2CCN2C(=O)[C@H](C)N(C)C1=O [Compound 1679] ([NMeL]I[NMeA][Aze][NMeCha][Sar][hPhe(3-Cl-4-CF3)]P[Ac5c][NMeGly(cPent)][NMeD]-Pyrrolidide; lactam N-11),0.85 nM
7,"CC[C@H](C)[C@@H]1NC(=O)[C@H](CC(C)C)N(C)C(=O)C[C@@H](C(=O)N2CCCCC2)N(C)C(=O)[C@H](C2CCCCC2)N(C)C(=O)C2(CCCC2)NC(=O)[C@H](CC=C2CCOCC2)N(C)C(=O)[C@H](CCc2ccc(C(F)(F)F)c(Cl)c2)NC(=O)CN(C)C(=O)[C@H](CC2CCCCC2)N(C)C(=O)CN(C)C(=O)CN(C)C1=O [Compound 2053, (8S,11S,17S,26S,29S,33S,36S)-11-[2-[3-chloro-4-(trifluoromethyl)phenyl]ethyl]-36-cyclohexyl-17-(cyclohexylmethyl)-29-isobutyl-9,15,18,21,24,30,34,37-octamethyl-26-[(1S)-1-methylpropyl]-33-(piperidine-1-carbonyl)-8-(2-tetrahydropyran-4-ylideneethyl)-6,9,12,15,18,21,24,27,30,34,37-undecazaspiro[4.33]octatriacontane-7,10,13,16,19,22,25,28,31,35,38-undecone] ([NMeL]I[Sar][Sar][NMeCha][Sar][hPhe(3-Cl-4-CF3)][X41][Ac5c][NMeChg][NMeD]-Piperidide; lactam N-11)",10 nM
8,CC[C@H](C)[C@@H]1NC(=O)[C@H](CC2CCCC2)N(C)C(=O)C[C@@H](C)NC(=O)[C@H](C(C)C)N(C)C(=O)C2(CCCC2)NC(=O)[C@@H]2CCCN2C(=O)[C@H](CCc2ccc(C(F)(F)F)c(Cl)c2)NC(=O)CN(C)C(=O)[C@H](CC2CCCCC2)N(C)C(=O)[C@@H]2CCN2C(=O)[C@H](C)N(C)C1=O [Compound 8] (cyclo([Ac5c][NMeV][d(β3hA)][NMeAla(cPent)]I[NMeA][Aze][NMeCha][Sar][hPhe(3-Cl-4-CF3)]P)),75 nM
9,CC[C@H](C)[C@@H]1NC(=O)[C@H](C2CCCCC2)N(C)C(=O)C[C@@H](C(=O)N2CCCCC2)N(C)C(=O)[C@H](C(C)C)N(C)C(=O)C2(CCCC2)NC(=O)[C@@H]2CCCN2C(=O)[C@H](CCc2ccc(C(F)(F)F)c(Cl)c2)NC(=O)CN(C)C(=O)[C@H](CC2CCCCC2)N(C)C(=O)[C@@H]2CCN2C(=O)[C@H](C)N(C)C1=O [Compound 58] ([NMeChg]I[NMeA][Aze][NMeCha][Sar][hPhe(3-Cl-4-CF3)]P[Ac5c][NMeV][NMeD]-Piperidide; lactam N-11),28 nM
10,CC[C@H](C)[C@@H]1NC(=O)[C@H](CC(C)C)N(C)C(=O)C[C@@H](C(=O)N2CCCCC2)N(C)C(=O)[C@H](C2CCCCC2)N(C)C(=O)C2(CCCC2)NC(=O)[C@@H]2C[C@H](c3ccccc3)CN2C(=O)[C@H](CCc2ccc(C(F)(F)F)c(Cl)c2)NC(=O)CN(C)C(=O)[C@H](CC2CCCCC2)N(C)C(=O)CN(C)C(=O)CN(C)C1=O [Compound 428] ([NMeL]I[Sar][Sar][NMeCha][Sar][hPhe(3-Cl-4-CF3)][Pro(cis-4-Ph)][Ac5c][NMeChg][NMeD]-Piperidide; lactam N-11),9.1 nM
11,CC[C@H](C)[C@@H]1NC(=O)[C@H](CC(C)C)N(C)C(=O)C[C@@H](C(=O)N2CCCCC2)N(C)C(=O)[C@H](C2CCCC2)N(C)C(=O)C2(CCCC2)NC(=O)[C@@H](Cc2ccccc2)N(C)C(=O)[C@H](CCc2ccc(C(F)(F)F)c(Cl)c2)NC(=O)CN(C)C(=O)[C@H](CC2CCCCC2)N(C)C(=O)CN(C)C(=O)CN(C)C1=O [Compound 1446] ([NMeL]I[Sar][Sar][NMeCha][Sar][hPhe(3-Cl-4-CF3)][dNMeF][Ac5c][NMeGly(cPent)][NMeD]-Piperidide; lactam N-11),150 nM
12,CCO[C@@H]1C[C@H]2C(=O)NC3(CCCC3)C(=O)N(C)[C@@H](CC(C)C)C(=O)N(C)[C@H](C(=O)N3CCOCC3)CC(=O)N(C)[C@@H](CC(C)C)C(=O)N[C@@H]([C@@H](C)CC)C(=O)N(C)CC(=O)N(C)CC(=O)N(C)[C@@H](CC3CCCCC3)C(=O)N(C)CC(=O)N[C@@H](CCc3ccc(C(F)(F)F)c(Cl)c3)C(=O)N2C1 [Compound 1785] ([NMeL]I[Sar][Sar][NMeCha][Sar][hPhe(3-Cl-4-CF3)][Hyp](Et)[Ac5c][NMeL][NMeD]-Morpholide; lactam N-11),0.45 nM
13,CC[C@H](C)[C@@H]1NC(=O)[C@H](C2CC2)N(C)C(=O)C[C@@H](C(=O)N2CCCCC2)N(C)C(=O)[C@H](C(C)C)N(C)C(=O)C2(CCCC2)NC(=O)[C@@H]2CCCN2C(=O)[C@H](CCc2ccc(C(F)(F)F)c(Cl)c2)NC(=O)CN(C)C(=O)[C@H](CC2CCCCC2)N(C)C(=O)[C@@H]2CCN2C(=O)[C@H](C)N(C)C1=O [Compound 100] ([NMeGly(cPr)]I[NMeA][Aze][NMeCha][Sar][hPhe(3-Cl-4-CF3)]P[Ac5c][NMeV][NMeD]-Piperidide; lactam N-11),7.4 nM
14,CC[C@H](C)[C@@H]1NC(=O)[C@H](CC(C)C)N(CC)C(=O)C[C@@H](C(=O)N2CCCCC2)N(C)C(=O)[C@H](C(C)C)N(C)C(=O)C2(CCCC2)NC(=O)[C@@H]2CCCN2C(=O)[C@H](CCc2ccc(C(F)(F)F)c(Cl)c2)NC(=O)CN(C)C(=O)[C@H](CC2CCCCC2)N(C)C(=O)[C@@H]2CCN2C(=O)[C@H](C)N(C)C1=O [Compound 667] ([NEtLeu]I[NMeA][Aze][NMeCha][Sar][hPhe(3-Cl-4-CF3)]P[Ac5c][NMeV][NMeD]-Piperidide; lactam N-11),5.1 nM
15,CC[C@H](C)[C@@H]1NC(=O)[C@H](C)N(C)C(=O)C[C@@H](C(=O)N2CCCCC2)N(C)C(=O)[C@H](C(C)C)N(C)C(=O)C2(CCCC2)NC(=O)[C@@H]2CCCN2C(=O)[C@H](CCCc2ccccc2)NC(=O)CN(C)C(=O)[C@H](CC2CCCCC2)N(C)C(=O)[C@@H]2CCN2C(=O)[C@H](C)N(C)C1=O [Compound 659] ([NMeA]I[NMeA][Aze][NMeCha][Sar][hhPhe]P[Ac5c][NMeV][NMeD]-Piperidide; lactam N-11),130 nM
16,"CC[C@H](C)[C@@H]1NC(=O)[C@H](CC(C)C)N(C)C(=O)C[C@@H](C)N(C)C(=O)[C@H](C2CCCC2)N(C)C(=O)C2(CCC2)NC(=O)[C@@H]2CC(F)(F)CN2C(=O)[C@H](CCc2ccc(C(F)(F)F)c(Cl)c2)NC(=O)CN(C)C(=O)[C@H](Cc2ccc(C(F)(F)F)cc2)N(CC)C(=O)[C@@H]2CCN2C(=O)[C@H](C)N(C)C1=O [Compound 949] (cyclo([Ac4c][NMeGly(cPent)][NMedβ3hAla][NMeL]I[NMeA][Aze][NEtPhe(4-CF3)][Sar][hPhe(3-Cl-4-CF3)][Pro(4,4-F2)]))",1.3 nM
17,CC[C@H](C)[C@@H]1NC(=O)[C@H](C)N(C)C(=O)C[C@@H](C)NC(=O)[C@H](C(C)C)N(C)C(=O)C2(CCCC2)NC(=O)[C@@H]2CCCN2C(=O)[C@H](CCc2ccc(C(F)(F)F)c(Cl)c2)NC(=O)[C@@H](C)N(C)C(=O)[C@H](CC2CCCCC2)N(C)C(=O)[C@@H]2CCN2C(=O)[C@H](CC(C)C)N(C)C1=O [Compound 2018] (cyclo([Ac5c][NMeV][d(β3hA)][NMeA]I[NMeL][Aze][NMeCha][dNMeA][hPhe(3-Cl-4-CF3)]P)),320 nM
